Test results as given in PMC3282010 (The AAPS Journal, 2011).
Where two headings read alike, the source gives them in different places. Marks after values point to notes of the source that are not given here.

Legend:
[1] = target: T1, OATP1B1 (Homo sapiens, UniProt Q9Y6L6)
[2] = target: T2, OATP1B3 (Homo sapiens, UniProt Q9NPD5)
[3] = for Total plasma concentration at steady-state: healthy subjects, 10-mg once-daily regimen; for Ratio of geometric means of AUCτ / Ratio of geometric means of C tr: macitentan + Cs vs macitentan; for Ratio of geometric means of AUCτ: AUC(384h-408h)/AUC(96h-120h); for Ratio of geometric means of C tr: period 2 versus period 1
[4] = human, in vivo
[5] = test system: wild-type CHO cells; details: 3 μM, incubation for 40 s, 37°C; mean ± SD
[6] = target: T1, OATP1B1; details: for Uptake into OATP1B1 over-expressing cells: 3 μM, incubation for 40 s, 37°C, mean ± SD; for Difference in uptake rate between wild-type and OATP over-expressing cells: OATP1B1, different concentrations tested (Fig. 6)
[7] = target: T2, OATP1B3; details: for Uptake into OATP1B3 over-expressing cells: 3 μM, incubation for 40 s, 37°C, mean ± SD; for Difference in uptake rate between wild-type and OATP over-expressing cells: OATP1B3, different concentrations tested (Fig. 6)
[8] = target: T1, OATP1B1; details: OATP inhibition IC50 versus free plasma concentration
[9] = clinical; details: human, plasma, oral, AUCτ, part A, macitentan + Cs, 384–408 h (day 17 of period 2), steady-state, geometric mean (95% CI)
[10] = clinical; details: human, in vivo, AUCτ
[11] = cited from earlier work
[12] = cited from earlier work; remark: listed apart in the source
[13] = test system: endothelin ETA and ETB receptor; details: dual ERA; cited from earlier work
[14] = in humans, after the first day of co-administration of Cs; cited from earlier work
[15] = strong CYP3A4 inhibitor; cited from earlier work
[16] = macitentan + Cs versus macitentan alone
[17] = part A, macitentan + Cs, 384–408 h (day 17 of period 2), geometric mean (95% CI)
[18] = part A, macitentan alone, 96–120 h (day 5 of period 1), geometric mean (95% CI)

T1 sequence (Q9Y6L6 whole entry): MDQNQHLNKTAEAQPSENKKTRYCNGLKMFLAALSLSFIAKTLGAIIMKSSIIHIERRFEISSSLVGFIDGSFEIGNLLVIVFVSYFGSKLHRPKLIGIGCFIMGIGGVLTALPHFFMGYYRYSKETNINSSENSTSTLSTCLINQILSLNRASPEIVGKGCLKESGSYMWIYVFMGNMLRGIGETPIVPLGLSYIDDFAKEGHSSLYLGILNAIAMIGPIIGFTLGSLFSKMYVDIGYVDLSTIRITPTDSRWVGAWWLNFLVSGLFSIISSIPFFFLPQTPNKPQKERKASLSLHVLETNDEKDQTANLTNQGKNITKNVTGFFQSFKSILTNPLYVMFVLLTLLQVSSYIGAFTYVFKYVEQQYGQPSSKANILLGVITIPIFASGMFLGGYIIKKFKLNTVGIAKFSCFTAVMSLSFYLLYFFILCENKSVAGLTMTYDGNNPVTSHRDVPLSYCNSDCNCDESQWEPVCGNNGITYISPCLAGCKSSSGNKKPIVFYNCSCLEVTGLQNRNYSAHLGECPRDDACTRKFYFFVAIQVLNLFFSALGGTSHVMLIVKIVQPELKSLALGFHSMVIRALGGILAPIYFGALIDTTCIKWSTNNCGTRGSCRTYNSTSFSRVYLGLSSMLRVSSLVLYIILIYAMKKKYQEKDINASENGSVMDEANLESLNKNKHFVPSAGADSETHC
T2 sequence (Q9NPD5 whole entry): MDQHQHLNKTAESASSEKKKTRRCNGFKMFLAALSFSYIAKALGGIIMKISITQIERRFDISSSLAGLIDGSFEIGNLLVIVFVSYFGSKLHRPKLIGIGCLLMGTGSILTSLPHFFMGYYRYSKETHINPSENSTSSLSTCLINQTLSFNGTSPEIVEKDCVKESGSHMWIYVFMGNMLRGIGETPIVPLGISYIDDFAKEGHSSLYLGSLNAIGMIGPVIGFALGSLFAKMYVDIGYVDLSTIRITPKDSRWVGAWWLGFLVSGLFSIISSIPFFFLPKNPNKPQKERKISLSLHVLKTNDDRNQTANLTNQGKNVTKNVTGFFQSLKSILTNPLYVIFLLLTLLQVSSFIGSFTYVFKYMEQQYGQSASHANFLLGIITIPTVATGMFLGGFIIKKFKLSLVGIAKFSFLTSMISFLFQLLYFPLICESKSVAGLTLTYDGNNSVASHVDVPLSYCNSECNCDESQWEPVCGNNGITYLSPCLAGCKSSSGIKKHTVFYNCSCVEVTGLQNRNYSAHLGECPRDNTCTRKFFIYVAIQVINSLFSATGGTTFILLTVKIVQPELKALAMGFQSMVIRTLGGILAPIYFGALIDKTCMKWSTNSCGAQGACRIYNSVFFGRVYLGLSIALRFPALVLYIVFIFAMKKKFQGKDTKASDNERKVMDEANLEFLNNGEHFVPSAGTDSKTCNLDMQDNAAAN

Structure (SMILES) | IC50 [1] [µM] | Total plasma concentration at steady-state [3] | Ratio of geometric means of AUCτ ([3]; part A) | Ratio of geometric means of C tr ([3]; part A) | C tr [3, 17] | C tr [3, 18] | Decrease of steady-state AUCτ in the presence of rifampin [4] [%] | Ratio of geometric means of AUCτ [4] | Ratio of geometric means of C tr [4] | Uptake into wild-type cells [5] [pmol/mg] | Uptake into OATP1B1 over-expressing cells [6] [pmol/mg] | Difference in uptake rate between wild-type and OATP over-expressing cells [6] | Uptake into OATP1B3 over-expressing cells [7] [pmol/mg] | Difference in uptake rate between wild-type and OATP over-expressing cells [7] | Free steady-state plasma concentration lower than the lowest IC50 determined [8] | AUC [9] [ng·h/mL] | elimination half-life (t 1/2) ([11]; in humans) | Binding to human plasma proteins in vitro [12] [%] | Increase of steady-state AUCτ in the presence of Cs [3, 16] [%] | further results
NS(=O)(=O)Nc1ncnc(OCCOc2ncc(Br)cn2)c1-c1ccc(Br)cc1 [ACT-132577] | 19.9 ± 1.4 | ~1.5 µM | 0.97 ng·h/mL | 1.02 ng·h/mL | 640 (550, 745) ng/mL | 626 (547, 717) ng/mL | 0.3 | 1.00 ng·h/mL | 0.83^a ng·h/mL | 214 ± 11 | 237 ± 7 | No marked difference | 288 ± 10 | No marked difference | around 2,490 fold | 16400 | approximately 48 h | 99.5 |  | IC50 [2]: 51.6 ± 3 µM; Systemic exposure in humans relative to macitentan (higher) ([3]; in humans): 2.5 fold; Decrease of steady-state AUCτ in the presence of Cs [3, 16]: 3%; AUCτ [4]: 14,798 (13,216, 16,569) ng·h/mL; AUC [10]: 14800 ng·h/mL; Potency in vitro relative to macitentan (less potent) [13]: approximately five-fold
CCCNS(=O)(=O)Nc1ncnc(OCC(=O)O)c1-c1ccc(Br)cc1 [ACT-373898] |  |  | 1.07^a ng·h/mL | 1.12^a ng·h/mL | 20 (15, 26) ng/mL | 17 (13, 24) ng/mL | 64 | 0.36^a ng·h/mL | 0.14^a ng·h/mL |  |  |  |  |  |  |  |  |  | 7 | AUCτ ([3]; part A, macitentan + Cs, 384–408 h (day 17 of period 2), steady-state, plasma, geometric mean (95% CI)): 568 (432, 747) ng·h/mL
COc1ccccc1Oc1c(NS(=O)(=O)c2ccc(C(C)(C)C)cc2)nc(-c2ncccn2)nc1OCCO [bosentan] |  |  |  |  |  |  |  |  |  |  |  |  |  |  |  |  |  |  |  | Increase in exposure in the presence of Cs [14]: 30 fold
CCCNS(=O)(=O)Nc1ncnc(OCCOc2ncc(Br)cn2)c1-c1ccc(Br)cc1 [Macitentan] | 6.3 ± 0.7 | approximately 0.63 μM | 1.10^a ng·h/mL | 1.38^a ng·h/mL | 220 (176, 274) ng/mL | 159 (121, 209) ng/mL | 79 | 0.21^a ng·h/mL | 0.07^a ng·h/mL | 346 ± 3 | 362 ± 6 | No marked difference | 387 ± 11 | No marked difference | around 2,490 fold | 7560 | approximately 16 h | 99.6 | 10 | Tolerability ([3]; co-administered with Cs, healthy male subjects): well tolerated; Subjects affected by treatment-emergent AEs ([3]; part A, period 1 (macitentan alone), 10 subjects): 30%; Reduction in exposure in the presence of rifampin [4]: approximately four-fold; Tolerability [4]: well tolerated; Time to maximum plasma concentrations after administration ([11]; in humans): approximately 8 h; Tolerability ([11]; single-ascending dose study, doses of up to 300 mg): well tolerated; Increase of AUC0–∞ in the presence of ketoconazole [15]: approximately two-fold
